System: 439559-082-T-J2-PDC spheroids viability
Experiment: Anticancer human tumor 439559-082-T-J2-PDC patient-derived colon adenocarcinoma cell line growth inhibition [GQUAD]
Settings: for IC50: curve of first compound; for viability, T/C: stronger effect = lower value
Summary of the method: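 Tumor cells were grown as complex spheroids with HUVEC endothelial cells and mesenchymal stem cells as stroma. G-quadruplex stabilizers were combined with targeted agents over half-log dilutions from near the clinical Cmax, or from 10 microM.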

[1] = second compound 0.0316 µM, first compound 0.0316 µM
[2] = second compound 0.0316 µM, first compound 0.1 µM
[3] = second compound 0.0316 µM, first compound 0.316 µM
[4] = second compound 0.0316 µM, first compound 1 µM
[5] = second compound 0.0316 µM, first compound 3.16 µM
[6] = second compound 0.0316 µM, first compound 10 µM
[7] = second compound 0.1 µM, first compound 0.0316 µM
[8] = second compound 0.1 µM, first compound 0.1 µM
[9] = second compound 0.1 µM, first compound 0.316 µM
[10] = second compound 0.1 µM, first compound 1 µM
[11] = second compound 0.1 µM, first compound 3.16 µM
[12] = second compound 0.1 µM, first compound 10 µM
[13] = second compound 0.316 µM, first compound 0.0316 µM
[14] = second compound 0.316 µM, first compound 0.1 µM
[15] = second compound 0.316 µM, first compound 0.316 µM
[16] = second compound 0.316 µM, first compound 1 µM
[17] = second compound 0.316 µM, first compound 3.16 µM
[18] = second compound 0.316 µM, first compound 10 µM
[19] = second compound 1 µM, first compound 0.0316 µM
[20] = second compound 1 µM, first compound 0.1 µM
[21] = second compound 1 µM, first compound 0.316 µM
[22] = second compound 1 µM, first compound 1 µM
[23] = second compound 1 µM, first compound 3.16 µM
[24] = second compound 1 µM, first compound 10 µM
[25] = second compound 3.16 µM, first compound 0.0316 µM
[26] = second compound 3.16 µM, first compound 0.1 µM
[27] = second compound 3.16 µM, first compound 0.316 µM
[28] = second compound 3.16 µM, first compound 1 µM
[29] = second compound 3.16 µM, first compound 3.16 µM
[30] = second compound 3.16 µM, first compound 10 µM
[31] = second compound 10 µM, first compound 0.0316 µM
[32] = second compound 10 µM, first compound 0.1 µM
[33] = second compound 10 µM, first compound 0.316 µM
[34] = second compound 10 µM, first compound 1 µM
[35] = second compound 10 µM, first compound 3.16 µM
[36] = second compound 10 µM, first compound 10 µM
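Note: spheroids exposed to the agents for 7 days before readout.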
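Throughout, for viability, T/C: percent of luminescence signal in DMSO vehicle wells taken as 100% viability.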

COc1ncnc(C2CC2)c1-c1ncc2cnn(Cc3ccc(-c4nc(C(F)(F)F)cn4C(C)C)cc3)c2n1 + Cc1cnc(CNC(=O)c2c(=O)c3ccc(N4CCCN(C)CC4)nc3n3c2sc2ccccc23)cn1 showed an IC50 (second compound 0.0316 µM) greater than 10 µM, an IC50 (second compound 0.1 µM) greater than 10 µM and an IC50 (second compound 0.316 µM) greater than 10 µM. The IC50 (second compound 1 µM) was greater than 10 µM, the IC50 (second compound 3.16 µM) was greater than 10 µM and the IC50 (second compound 10 µM) was greater than 10 µM. It also gave a viability, T/C [1] of 106%, a viability, T/C [2] of 92% and a viability, T/C [3] of 93.4%. The viability, T/C [4] was 105%, the viability, T/C [5] was 95.5% and the viability, T/C [6] was 97.5%. For the same molecule, the viability, T/C [7] was 103%, the viability, T/C [8] was 101% and the viability, T/C [9] was 87.4%. The viability, T/C [10] was 95.4%, the viability, T/C [11] was 97.6% and the viability, T/C [12] was 96.5%. For the same molecule, the viability, T/C [13] was 86.5%, the viability, T/C [14] was 85.1% and the viability, T/C [15] was 89.5%. For the same molecule, the viability, T/C [16] was 79.3%, the viability, T/C [17] was 93.5% and the viability, T/C [18] was 77.4%. The viability, T/C [19] was 74.4%, the viability, T/C [20] was 78% and the viability, T/C [21] was 64.9%. For the same molecule, the viability, T/C [22] was 81.8%, the viability, T/C [23] was 83.7% and the viability, T/C [24] was 73%. For the same molecule, the viability, T/C [25] was 66.4%, the viability, T/C [26] was 69.3% and the viability, T/C [27] was 69.2%. For the same molecule, the viability, T/C [28] was 69.6%, the viability, T/C [29] was 70% and the viability, T/C [30] was 69%. The viability, T/C [31] was 66.8%, the viability, T/C [32] was 58% and the viability, T/C [33] was 58.9%. For the same molecule, the viability, T/C [34] was 66.3%, the viability, T/C [35] was 67% and the viability, T/C [36] was 63.9%.
O=C(c1cc(Cc2n[nH]c(=O)c3ccccc23)ccc1F)N1CCN(C(=O)C2CC2)CC1 + Cc1[nH]c2ccc(F)cc2c1-c1nc2c3cccnc3c3ncccc3c2[nH]1 was tested, and the IC50 (second compound 0.0316 µM) was greater than 10 µM, the IC50 (second compound 0.1 µM) was greater than 10 µM and the IC50 (second compound 0.316 µM) was greater than 10 µM. For the same molecule, the IC50 (second compound 1 µM) was greater than 10 µM, the IC50 (second compound 3.16 µM) was greater than 10 µM and the IC50 (second compound 10 µM) was greater than 10 µM. For the same molecule, the viability, T/C [1] was 100%, the viability, T/C [2] was 110% and the viability, T/C [3] was 91.5%. The viability, T/C [4] was 96.8%, the viability, T/C [5] was 102% and the viability, T/C [6] was 96.3%. It also gave a viability, T/C [7] of 103%, a viability, T/C [8] of 104% and a viability, T/C [9] of 94.9%. The viability, T/C [10] was 90.5%, the viability, T/C [11] was 103% and the viability, T/C [12] was 100%. It also gave a viability, T/C [13] of 103%, a viability, T/C [14] of 99.3% and a viability, T/C [15] of 105%. For the same molecule, the viability, T/C [16] was 102%, the viability, T/C [17] was 107% and the viability, T/C [18] was 89.9%. It also gave a viability, T/C [19] of 105%, a viability, T/C [20] of 102% and a viability, T/C [21] of 98.3%. The viability, T/C [22] was 99.3%, the viability, T/C [23] was 105% and the viability, T/C [24] was 89%. It also gave a viability, T/C [25] of 90.8%, a viability, T/C [26] of 79% and a viability, T/C [27] of 92.7%. The viability, T/C [28] was 89.9%, the viability, T/C [29] was 98.8% and the viability, T/C [30] was 87.3%. It also gave a viability, T/C [31] of 88.2%, a viability, T/C [32] of 87.1% and a viability, T/C [33] of 86.2%. For the same molecule, the viability, T/C [34] was 76%, the viability, T/C [35] was 90.5% and the viability, T/C [36] was 89.5%.
Molecule O=C(NO)c1cnc(N2CCN(S(=O)(=O)c3ccc4ccccc4c3)CC2)nc1 + Cc1[nH]c2ccc(F)cc2c1-c1nc2c3cccnc3c3ncccc3c2[nH]1 has an IC50 (second compound 0.0316 µM) of 2.1 µM, an IC50 (second compound 0.1 µM) of 1.87 µM and an IC50 (second compound 0.316 µM) of 3.79 µM. It also gave an IC50 (second compound 1 µM) of 2.04 µM, an IC50 (second compound 3.16 µM) of 1.35 µM and an IC50 (second compound 10 µM) of 1.09 µM. The viability, T/C [1] was 90.8%, the viability, T/C [2] was 86% and the viability, T/C [3] was 75.8%. For the same molecule, the viability, T/C [4] was 60.1%, the viability, T/C [5] was 44.6% and the viability, T/C [6] was 31.5%. For the same molecule, the viability, T/C [7] was 84.4%, the viability, T/C [8] was 79.8% and the viability, T/C [9] was 75.9%. It also gave a viability, T/C [10] of 64.4%, a viability, T/C [11] of 37.9% and a viability, T/C [12] of 31.4%. The viability, T/C [13] was 85.4%, the viability, T/C [14] was 76.4% and the viability, T/C [15] was 76%. The viability, T/C [16] was 65%, the viability, T/C [17] was 55.9% and the viability, T/C [18] was 30.8%. The viability, T/C [19] was 86.2%, the viability, T/C [20] was 85.2% and the viability, T/C [21] was 77.1%. The viability, T/C [22] was 64.8%, the viability, T/C [23] was 41% and the viability, T/C [24] was 25.7%. It also gave a viability, T/C [25] of 70.3%, a viability, T/C [26] of 73.7% and a viability, T/C [27] of 62.1%. It also gave a viability, T/C [28] of 58.1%, a viability, T/C [29] of 31.6% and a viability, T/C [30] of 25.8%. For the same molecule, the viability, T/C [31] was 68.2%, the viability, T/C [32] was 67.4% and the viability, T/C [33] was 58.4%. For the same molecule, the viability, T/C [34] was 53.1%, the viability, T/C [35] was 24.2% and the viability, T/C [36] was 22.4%.
Work on COc1cc(C2c3cc4c(cc3C(OC3OC5COC(C)OC5C(O)C3O)C3COC(=O)C23)OCO4)cc(OC)c1O (stereo not drawn) + Cc1[nH]c2ccc(F)cc2c1-c1nc2c3cccnc3c3ncccc3c2[nH]1 yielded an IC50 (second compound 0.0316 µM) greater than 10 µM, an IC50 (second compound 0.1 µM) greater than 10 µM and an IC50 (second compound 0.316 µM) greater than 10 µM. The IC50 (second compound 1 µM) was greater than 10 µM, the IC50 (second compound 3.16 µM) was greater than 10 µM and the IC50 (second compound 10 µM) was greater than 10 µM. For the same molecule, the viability, T/C [1] was 98.1%, the viability, T/C [2] was 99.7% and the viability, T/C [3] was 97.9%. It also gave a viability, T/C [4] of 87.8%, a viability, T/C [5] of 86.5% and a viability, T/C [6] of 66.1%. It also gave a viability, T/C [7] of 102%, a viability, T/C [8] of 98.2% and a viability, T/C [9] of 97.5%. The viability, T/C [10] was 87.1%, the viability, T/C [11] was 96.9% and the viability, T/C [12] was 64.9%. The viability, T/C [13] was 108%, the viability, T/C [14] was 101% and the viability, T/C [15] was 103%. It also gave a viability, T/C [16] of 94.2%, a viability, T/C [17] of 85.6% and a viability, T/C [18] of 65.3%. For the same molecule, the viability, T/C [19] was 98.2%, the viability, T/C [20] was 87.8% and the viability, T/C [21] was 89.4%. It also gave a viability, T/C [22] of 83.8%, a viability, T/C [23] of 86.7% and a viability, T/C [24] of 58.9%. It also gave a viability, T/C [25] of 76.5%, a viability, T/C [26] of 85.2% and a viability, T/C [27] of 84.1%. The viability, T/C [28] was 73.5%, the viability, T/C [29] was 79.9% and the viability, T/C [30] was 56.7%. The viability, T/C [31] was 88.5%, the viability, T/C [32] was 85.3% and the viability, T/C [33] was 83.8%. It also gave a viability, T/C [34] of 90.6%, a viability, T/C [35] of 78.5% and a viability, T/C [36] of 57.2%.
